According to PubChem BioAssay AID248 (DTP/NCI, 2004):
Values joined by “and” are separate entries in the source; they are usually repeats but may differ in a detail not shown here. Identical values can stand only once. Inconclusive results and toxic doses are left out. Rule as the data show it: active = T/C of 150% or more; inactive = T/C below 125%.

Test system: L1210 leukemia ip in BDF1 mice, survival T/C
Assay: NCI In Vivo Anticancer Drug Screen. Data for tumor model L1210 Leukemia (intraperitoneal) in B6D2F1 (BDF1) mice
Details: endpoint: mean survival time, higher = longer survival
Outline: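 Transplanted-tumor mice were given test agent; controls received vehicle only. Survival readings from the two groups were divided (treated over control).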

[1] = dose: 25.0 mg/kg/injection, schedule: Q01DX009 (ip), vehicle: Klucel (hydroxypropylcellulose) (HPC)
[2] = dose: 100.0 mg/kg/injection, schedule: Q01DX009 (ip), vehicle: Klucel (hydroxypropylcellulose) (HPC)
[3] = dose: 100.0 mg/kg/injection, schedule: Q04DX002 (ip), vehicle: saline with Tween-80
[4] = dose: 200.0 mg/kg/injection, schedule: Q04DX002 (ip), vehicle: saline with Tween-80
[5] = dose: 50.0 mg/kg/injection, schedule: Q01DX001 (ip), vehicle: carboxymethylcellulose (CMC)
[6] = dose: 100.0 mg/kg/injection, schedule: Q01DX001 (ip), vehicle: carboxymethylcellulose (CMC)
[7] = dose: 200.0 mg/kg/injection, schedule: Q01DX001 (ip), vehicle: carboxymethylcellulose (CMC)
[8] = dose: 400.0 mg/kg/injection, schedule: Q01DX001 (ip), vehicle: carboxymethylcellulose (CMC)
[9] = dose: 100.0 mg/kg/injection, schedule: Q04DX003 (ip), vehicle: Klucel (hydroxypropylcellulose) (HPC)
[10] = dose: 200.0 mg/kg/injection, schedule: Q04DX003 (ip), vehicle: Klucel (hydroxypropylcellulose) (HPC)
[11] = dose: 200.0 mg/kg/injection, schedule: Q01DX009 (ip), vehicle: Klucel (hydroxypropylcellulose) (HPC)
[12] = dose: 400.0 mg/kg/injection, schedule: Q01DX009 (ip), vehicle: Klucel (hydroxypropylcellulose) (HPC)
[13] = dose: 100.0 mg/kg/injection, schedule: Q01DX009 (ip), vehicle: saline with Tween-80
[14] = dose: 100.0 mg/kg/injection, schedule: Q04DX003 (ip), vehicle: saline with Tween-80
[15] = dose: 200.0 mg/kg/injection, schedule: Q04DX003 (ip), vehicle: saline with Tween-80
[16] = dose: 400.0 mg/kg/injection, schedule: Q04DX003 (ip), vehicle: saline with Tween-80
[17] = dose: 400.0 mg/kg/injection, schedule: Q04DX003 (ip), vehicle: Klucel (hydroxypropylcellulose) (HPC)

Measured: T/C

CCCCNC(=O)Nc1ccc(O)c(C(=O)O)c1
inactive: [1] 110 % of control | dose: 50.0 mg/kg/injection, schedule: Q01DX009 (ip), vehicle: Klucel (hydroxypropylcellulose) (HPC) 93 % of control | [2] 100 % of control

CC1CC(C)(C)NC(=S)O1 (configuration not stated)
inactive: dose: 15.0 mg/kg/injection, schedule: Q01DX001 (ip), vehicle: carboxymethylcellulose (CMC) 101 % of control | dose: 30.0 mg/kg/injection, schedule: Q01DX001 (ip), vehicle: carboxymethylcellulose (CMC) 102 % of control

CCCCSN1CCCCC1
inactive: [3] 93 % of control | [4] 93 % of control

Clc1ccc(Sc2ccc(Br)cc2)cc1
inactive: [5] 103 % of control | [6] 101 % of control | [7] 103 % of control | [8] 101 % of control

CC(C)C(NC(=O)NCCCl)c1ccccc1 (configuration not stated)
inactive: [9] 88 % of control | [10] 88 % of control

CCOC(=O)c1ccc(N=Nc2ccc([N+](=O)[O-])cc2)cc1
inactive: [3] 105 % of control | [4] 105 % of control | dose: 400.0 mg/kg/injection, schedule: Q04DX002 (ip), vehicle: saline with Tween-80 112 % of control

O=S(=O)(O)O.[NH-]CC(N)=O.[NH-]CC(N)=O.[Ni+2]
inactive: dose: 6.25 mg/kg/injection, schedule: Q01DX009 (ip), vehicle: water 109 % of control | dose: 12.5 mg/kg/injection, schedule: Q01DX009 (ip), vehicle: water 97 % of control | dose: 25.0 mg/kg/injection, schedule: Q01DX009 (ip), vehicle: water 90 % of control

CC(C)(C)NC(=O)Nc1cccc(O)c1
inactive: [2] 95 % of control | [11] 100 % of control | [12] 104 % of control

COC(OC)c1[nH]c(=S)[nH]c(=O)c1Cc1cc([N+](=O)[O-])ccc1O
inactive: [13] 100 % of control | [14] 101 % of control | dose: 200.0 mg/kg/injection, schedule: Q01DX009 (ip), vehicle: saline with Tween-80 91 % of control | [15] 97 % of control | dose: 400.0 mg/kg/injection, schedule: Q01DX009 (ip), vehicle: saline with Tween-80 93 % of control | [16] 94 % of control

CNCCN1CCC(Cc2ccccc2)CC1
inactive: dose: 50.0 mg/kg/injection, schedule: Q01DX009 (ip), vehicle: saline 112 % of control | dose: 100.0 mg/kg/injection, schedule: Q01DX009 (ip), vehicle: saline 102 % of control | dose: 200.0 mg/kg/injection, schedule: Q01DX009 (ip), vehicle: saline 121 % of control

Cc1ccc(NC(=O)c2cccc(C(=O)Nc3ccc(C)c(C)c3)c2)cc1C
inactive: [2] 94 % of control | [9] 91 % of control | [11] 104 % of control | [10] 97 % of control | [12] 94 % of control | [17] 91 % of control

O=C1CCc2ccccc2/C1=C\c1ccccc1
inactive: [14] 98 % of control | [15] 97 % of control | [16] 92 % of control

CC(=O)C(CCS(C)(=O)=O)(CCS(C)(=O)=O)c1ccccc1
inactive: [9] 112 % of control | [10] 108 % of control | [17] 100 % of control

O=C1CCCCCCNCCCCCC1
inactive: dose: 100.0 mg/kg/injection, schedule: Q01DX001 (ip), vehicle: acetone 97 % of control | dose: 200.0 mg/kg/injection, schedule: Q01DX001 (ip), vehicle: acetone 108 % of control | dose: 400.0 mg/kg/injection, schedule: Q01DX001 (ip), vehicle: acetone 103 % of control

O=C(Nc1ncc([N+](=O)[O-])s1)c1cccc([N+](=O)[O-])c1
inactive: dose: 6.25 mg/kg/injection, schedule: Q01DX009 (ip), vehicle: Klucel (hydroxypropylcellulose) (HPC) 92 % of control | dose: 6.25 mg/kg/injection, schedule: Q04DX003 (ip), vehicle: Klucel (hydroxypropylcellulose) (HPC) 105 % of control | dose: 12.5 mg/kg/injection, schedule: Q01DX009 (ip), vehicle: Klucel (hydroxypropylcellulose) (HPC) 100 % of control | dose: 12.5 mg/kg/injection, schedule: Q04DX003 (ip), vehicle: Klucel (hydroxypropylcellulose) (HPC) 102 % of control | [1] 89 % of control | dose: 25.0 mg/kg/injection, schedule: Q04DX003 (ip), vehicle: Klucel (hydroxypropylcellulose) (HPC) 102 % of control

CCOC(=O)NCCCCN(C(C)=O)n1cnc2c(SC)ncnc21
inactive: dose: 12.5 mg/kg/injection, schedule: Q04DX002 (ip), vehicle: saline with Tween-80 100 % of control | dose: 25.0 mg/kg/injection, schedule: Q04DX002 (ip), vehicle: saline with Tween-80 94 % of control | dose: 50.0 mg/kg/injection, schedule: Q04DX002 (ip), vehicle: saline with Tween-80 97 % of control

CC(=O)C1=CCCCC1
inactive: [9] 96 % of control | [10] 105 % of control | [17] 93 % of control

COC(=O)C1=C(\N2CCOCC2)CCCC/C=C\1C(=O)OC
inactive: [6] 108 % of control | [7] 105 % of control | [8] 102 % of control

COc1ccc(C(=S)N(C)NC(=O)CC(=O)NN(C)C(=S)c2ccc(OC)cc2)cc1
inactive: dose: 100.0 mg/kg/injection, schedule: Q01DX009 (ip), vehicle: gum acacia 95 % of control | dose: 100.0 mg/kg/injection, schedule: Q04DX003 (ip), vehicle: gum acacia 92 % of control | dose: 200.0 mg/kg/injection, schedule: Q01DX009 (ip), vehicle: gum acacia 90 % of control | dose: 200.0 mg/kg/injection, schedule: Q04DX003 (ip), vehicle: gum acacia 95 % of control | dose: 400.0 mg/kg/injection, schedule: Q04DX003 (ip), vehicle: gum acacia 96 % of control

COc1cc(C2CC(C)=C(C)CC2C(=O)O)cc(OC)c1OC (configuration not stated)
inactive: [14] 92 % of control | [15] 97 % of control | [16] 96 % of control

COc1cc(N=Nc2ccccc2OC)ccc1N
inactive: [5] 97 % of control | [6] 109 % of control | [7] 106 % of control | [8] 101 % of control

CCCCCCCCNCCOC(=O)c1ccc(N(CC)CC)cc1
inactive: dose: 75.0 mg/kg/injection, schedule: Q01DX001 (ip), vehicle: carboxymethylcellulose (CMC) 91 % of control | dose: 150.0 mg/kg/injection, schedule: Q01DX001 (ip), vehicle: carboxymethylcellulose (CMC) 97 % of control

CN(CCc1ccccc1)C(N)=S
inactive: dose: 75.0 mg/kg/injection, schedule: Q01DX001 (ip), vehicle: acetone 96 % of control

CCCCCCCCCCCCNCc1ccc(O)cc1
inactive: dose: 25.0 mg/kg/injection, schedule: Q01DX001 (ip), vehicle: other 95 % of control | dose: 25.0 mg/kg/injection, schedule: Q01DX009 (ip), vehicle: saline with Tween-80 96 % of control | dose: 25.0 mg/kg/injection, schedule: Q04DX003 (ip), vehicle: saline with Tween-80 98 % of control | dose: 50.0 mg/kg/injection, schedule: Q01DX001 (ip), vehicle: other 93 % of control | dose: 50.0 mg/kg/injection, schedule: Q01DX009 (ip), vehicle: saline with Tween-80 93 % of control | dose: 50.0 mg/kg/injection, schedule: Q04DX003 (ip), vehicle: saline with Tween-80 101 % of control | dose: 100.0 mg/kg/injection, schedule: Q01DX001 (ip), vehicle: other 93 % of control and 90 % of control | [13] 88 % of control | [14] 102 % of control

C=CC(C)(C)c1ccccc1O
inactive: [14] 95 % of control | [15] 104 % of control
